Target: T1, soluble guanylate cyclase (sGC), α1 and β1 subunits of guanylate cyclase expressed in Sf9 cells (Homo sapiens, UniProt Q02108+Q02153)
T1 construct: made in house; host or cells: Sf9 insect cells (baculovirus co-infection)
T1 sequence (Q02108 1-690): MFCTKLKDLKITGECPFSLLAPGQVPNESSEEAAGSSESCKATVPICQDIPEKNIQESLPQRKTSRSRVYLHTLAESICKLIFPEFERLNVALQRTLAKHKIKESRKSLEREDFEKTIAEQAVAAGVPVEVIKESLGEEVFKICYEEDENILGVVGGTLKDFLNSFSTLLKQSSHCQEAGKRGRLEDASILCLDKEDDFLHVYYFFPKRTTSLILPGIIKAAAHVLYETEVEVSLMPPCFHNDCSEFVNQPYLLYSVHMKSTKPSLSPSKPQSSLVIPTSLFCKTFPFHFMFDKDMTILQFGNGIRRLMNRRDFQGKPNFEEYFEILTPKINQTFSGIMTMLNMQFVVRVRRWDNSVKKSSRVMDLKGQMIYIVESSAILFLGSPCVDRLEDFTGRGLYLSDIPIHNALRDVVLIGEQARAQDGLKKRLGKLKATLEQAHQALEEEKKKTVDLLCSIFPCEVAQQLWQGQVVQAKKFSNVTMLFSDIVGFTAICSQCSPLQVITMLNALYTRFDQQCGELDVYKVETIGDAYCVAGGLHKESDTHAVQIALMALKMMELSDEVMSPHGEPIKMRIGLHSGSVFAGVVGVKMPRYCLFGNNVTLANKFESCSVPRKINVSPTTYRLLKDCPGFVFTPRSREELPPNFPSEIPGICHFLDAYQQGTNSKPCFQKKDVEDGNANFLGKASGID
T1 sequence (Q02153 1-619): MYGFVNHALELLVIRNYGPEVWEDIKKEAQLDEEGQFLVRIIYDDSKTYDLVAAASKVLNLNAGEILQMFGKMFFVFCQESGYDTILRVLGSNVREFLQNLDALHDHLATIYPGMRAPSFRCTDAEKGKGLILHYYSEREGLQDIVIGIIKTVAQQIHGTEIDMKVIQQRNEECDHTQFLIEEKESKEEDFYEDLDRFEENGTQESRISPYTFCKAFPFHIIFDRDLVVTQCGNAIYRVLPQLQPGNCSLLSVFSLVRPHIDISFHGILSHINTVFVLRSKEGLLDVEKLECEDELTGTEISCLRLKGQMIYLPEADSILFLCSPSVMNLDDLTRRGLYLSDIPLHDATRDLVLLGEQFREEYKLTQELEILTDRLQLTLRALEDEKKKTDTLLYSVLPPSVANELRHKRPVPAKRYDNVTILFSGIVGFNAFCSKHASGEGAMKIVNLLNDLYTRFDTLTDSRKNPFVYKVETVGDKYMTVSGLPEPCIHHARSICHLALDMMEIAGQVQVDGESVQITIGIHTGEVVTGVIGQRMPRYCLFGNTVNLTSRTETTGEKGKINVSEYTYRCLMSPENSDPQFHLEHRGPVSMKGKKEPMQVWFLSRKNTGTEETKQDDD
Test: Guanylate cyclase assay (formation of cyclic GMP from GTP)
Format: biochemical
Settings: for Mean activation at 100 μM: (activity of compound at 100 μM with 1 μM SNP)−(activity of compound at 100 μM)/(activity of SNP at 1 μM)−(basal activity of sGC); for Mean efficacy of compound combined with 1 μM of SNP, [%]: compound at 100 μM with 1 μM sodium nitro prusside (SNP); for Emax at 100 µM: read-out: Mean basal efficacy of compound alone at 100 μM, [%]
Method: Sf9 cells were cultured in Sf-90011 medium supplemented with 10% (v/v) fetal calf serum at 28° C. to give a count of 6×10^5 cells/ml. The cells were then infected with a mixture of the virus stocks for the α1 and β1 subunits of guanylate cyclase at a multiplicity of infection of 0.1 pfu/cell. The cells were harvested 72 hours after infection and were pelleted by centrifugation. The resulting cell pellets were homogenized with Polytron homogenizer in 3 volumes of 20 mM Tris-HCl (pH 7.6) containing 1 mM EDTA, 5 mM dithiothreitol, 90 mM NaCl, 10% glycerol, and protease inhibitors mix (Roche Molecular Biochemicals). The homogenate was centrifuged at 50,000×g for 60 minutes and the supernatant was aliquotted and stored at −80° C.
Compounds of the present invention were dissolved in DMSO to make 100 mM and saved as stocks at −20° C. When compounds were tested, prepared 10-fold concentrated solutions with 10% DMSO. Then added 10 μl of 10-fold concentrated compound solutions to the reaction mixture of total 100 μl.
Guanylate cyclase activity was measured by the formation of cyclic GMP from GTP in a total volume of 100 μl. Guanylate cyclase-expressed Sf9 cell high-speed supernatant was used as an enzyme source for the assay. The reaction mixture containing 0.1 μl enzyme (Sf9 high-speed sup), compound solution, 50 mM Tris-HCl (pH 7.6), 4 mM MgCl2, 0.5 mM IBMX, 15 mM creatine phosphate, 20 μg creatine phosphokinase, 0.1% BSA and 1 mM GTP was incubated at 37° C. for 15 minutes. After the reaction, 0.9 ml of 50 mM sodium acetate buffer (pH 5.8) was added followed by boiling for 3 minutes to stop the reaction. The solution was centrifuged at 3000 rpm for 15 minutes at room temperature and cyclic GMP in 20 μl of the resulting supernatant was measured according to the protocol of Amersham cyclic GMP enzymeimmunoassay system (purchased from Sigma, catalogue number RPN 226).
Compounds of the present invention were tested at 100 μM with and without 1 μM sodium nitro prusside (SNP). 1-Benzyl-3-hydroxymethyl-2-furylindazole (YC-1) was included as a standard for each assay. The data was normalized with the activity of 100 μM YC-1 (without SNP) as 100%. Mean basal efficacy, in Table 1, was expressed as a percentage of 100 μM YC-1 (without SNP).
The mean activation, in Table 1, was calculated based on the formula: (activity of compound of the present invention at 100 μM with 1 μM SNP)−(activity of compound of the present invention at 100 μM)/(activity of SNP at 1 μM)−(basal activity of sGC).

[1] = normalized with the activity of 100 μM YC-1 (without SNP) as 100%
[2] = compound at 100 μM without SNP, normalized with the activity of 100 μM YC-1 (without SNP) as 100%

| Compound | Mean activation at 100 μM | Mean efficacy of compound combined with 1 μM of SNP, [%] [1] [%] | Emax at 100 µM [2] [%] | Mean basal efficacy of compound alone at 100 μM, [%] [2] [%] |
| --- | --- | --- | --- | --- |
| COc1cccc(Sc2ccccc2/C=C/C(=O)NC2CCCCC2O)c1 (stereo not drawn) [Example 48, (2E)-N-(2-hydroxycyclohexyl)-3-{2-[(3-methoxyphenyl)thio]phenyl}acrylamide] | 4.6 | 102 | 20 |  |
| O=C(CCc1ccccc1Sc1ccc(Cl)cc1)NC1CCC(O)CC1 (stereo not drawn) [Example 4, 3-{2-[(4-chlorophenyl)thio]phenyl}-N-(4-hydroxycyclohexyl)propanamide] | 2.6 | 28 | 1 |  |
| CC(CC(=O)N(C)C1CCN(C)CC1)c1ccccc1Sc1ccc(Cl)cc1 (stereo not drawn) [Example 10, 3-{2-[(4-chlorophenyl)thio]phenyl}-N-methyl-N-(1-methyl-4-piperidinyl)butanamide] | 1.6 | 7 | 0 |  |
| O=C(/C=C/c1ccccc1Sc1ccccc1)NC1CCCCC1O (stereo not drawn) [Example 46, (2E)-N-(2-hydroxycyclohexyl)-3-[2-(phenylthio)phenyl]acrylamide] | 4.3 | 121 | 54 |  |
| CC(C)CCSc1ccccc1/C=C/C(=O)N1CCC(C(N)=O)CC1 [Example 63, 1-((2E)-3-{2-[(3-methylbutyl)thio]phenyl}-2-propenoyl)-4-piperidinecarboxamide] | 6.8 | 164 | 125 |  |
| O=C(CCc1cccc(F)c1Sc1ccc(Cl)cc1)NCCCCO [Example 7, 3-{2-[(4-chlorophenyl)thio]-3-fluorophenyl}-N-(4-hydroxybutyl)propanamide] | 3.8 | 80 | 19 |  |
| Cc1ccc(Sc2ccccc2/C=C/C(=O)NCCCCO)cc1 [Example 36, (2E)-N-(4-hydroxybutyl)-3-{2-[(4-methylphenyl)thio]phenyl}acrylamide] | 9.2 | 212 | 66 |  |
| CC(C)CCSc1ccccc1/C=C/C(=O)NC1CCCCC1O (stereo not drawn) [Example 56, (2E)-N-(2-hydroxycyclohexyl)-3-{2-[(3-methylbutyl)thio]phenyl}acrylamide] | 8.3 | 276 | 169 |  |
| OCc1ccc(-c2nn(Cc3ccccc3)c3ccccc23)o1 [YC-1, 1-Benzyl-3-hydroxymethyl-2-furylindazole, reference compound] | 2.7 | 224 |  | 100 |
| O=C(/C=C/c1ccccc1Sc1ccc(Cl)cc1)NC1CCCCC1O (stereo not drawn) [Example 40, (2E)-3-{2-[(4-chlorophenyl)thio]phenyl}-N-(2-hydroxycyclohexyl)acrylamide] | 6.3 | 366 | 100 |  |
| COc1ccc(Sc2ccc(C)cc2)c(/C=C/C(=O)NC2CCC(O)CC2)c1 (stereo not drawn) [Example 44, (2E)-N-(4-hydroxycyclohexyl)-3-{5-methoxy-2-[(4-methylphenyl)thio]phenyl}acrylamide] | 3.5 | 89 | 36 |  |
| CC(C)Sc1ccccc1/C=C/C(=O)NC1CCC(O)CC1 (stereo not drawn) [Example 24, (2E)-N-(4-hydroxycyclohexyl)-3-[2-(isopropylthio)phenyl]acrylamide] | 1.6 | 17 | 4 |  |
| CC(C)CCSc1ccccc1/C=C/C(=O)NCCCCCO [Example 59, (2E)-N-(5-hydroxypentyl)-3-{2-[(3-methylbutyl)thio]phenyl}acrylamide] | 8.4 | 221 | 162 |  |
| COc1ccc(Sc2ccccc2/C=C/C(=O)NC2CCC(O)CC2)cc1 (stereo not drawn) [Example 51, (2E)-N-(4-hydroxycyclohexyl)-3-{2-[(4-methoxyphenyl)thio]phenyl}acrylamide] | 7.2 | 258 | 119 |  |
| O=C(/C=C/c1ccccc1Sc1ccc(Cl)cc1)NCCCCO [Example 34, (2E)-3-{2-[(4-chlorophenyl)thio]phenyl}-N-(4-hydroxybutyl)acrylamide] | 6.9 | 219 | 113 |  |
| CC(C)CCSc1ccccc1/C=C/C(=O)NC1CCC(O)CC1 (stereo not drawn) [Example 55, (2E)-N-(4-hydroxycyclohexyl)-3-{2-[(3-methylbutyl)thio]phenyl}acrylamide] | 5.3 | 213 | 143 |  |
| COc1cccc(Sc2ccccc2/C=C/C(=O)NC2CCC(O)CC2)c1 (stereo not drawn) [Example 50, (2E)-N-(4-hydroxycyclohexyl)-3-{2-[(3-methoxyphenyl)thio]phenyl}acrylamide] | 6.4 | 175 | 68 |  |
| O=C(CCc1cc(F)ccc1Sc1ccc(Cl)cc1)NCCCCO [Example 8, 3-{2-[(4-chlorophenyl)thio]-5-fluorophenyl}-N-(4-hydroxybutyl)propanamide] | 3.1 | 16 | 0 |  |
| CCNC(=O)/C=C/c1ccccc1Sc1ccc(Cl)cc1 [Example 32, (2E)-3-{2-[(4-chlorophenyl)thio]phenyl}-N-ethylacrylamide] | 10.5 | 78 | 27 |  |

— patent US20040121994A1, “Novel amides that activate soluble guanylate cyclase” (priority 2002, published 2004)
